Assay results: patent US6204293A, “Inhibitors of protein isoprenyl transferases” (University of Pittsburgh, priority 1998, dated 2001)
Structures can show the parent of a compound that is named as a salt.

These compounds were tested against T1, Rat brain protein farnesyltransferase (Rattus norvegicus, UniProt Q02293+Q04631) (assay: % inhibition of farnesylation, scintillation proximity assay with biotin-K Ras B fragment). Conditions: Table 3; 1 × 10^-7 M.
T1 construct: Rat brain protein farnesyltransferase activity is measured; from tissue; host or cells: rat brain
T1 sequence (Q02293 whole entry, the tested form may be a part, one chain of several): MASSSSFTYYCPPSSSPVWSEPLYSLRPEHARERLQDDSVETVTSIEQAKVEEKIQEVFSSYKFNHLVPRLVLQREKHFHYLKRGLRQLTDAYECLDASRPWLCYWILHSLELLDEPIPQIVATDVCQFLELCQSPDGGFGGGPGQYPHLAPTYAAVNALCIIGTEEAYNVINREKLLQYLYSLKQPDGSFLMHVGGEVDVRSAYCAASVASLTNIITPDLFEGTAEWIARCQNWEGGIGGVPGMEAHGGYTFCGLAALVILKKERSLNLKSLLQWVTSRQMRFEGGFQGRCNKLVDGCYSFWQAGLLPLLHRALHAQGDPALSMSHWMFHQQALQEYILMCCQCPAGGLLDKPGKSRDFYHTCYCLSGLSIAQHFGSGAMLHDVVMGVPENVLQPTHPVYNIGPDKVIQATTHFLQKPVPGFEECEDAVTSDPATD
Type: biochemical
Summary of the method: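 Rat brain enzyme, purified through three steps, in a scintillation proximity assay kit with biotin-K Ras B fragment substrate at 0.1 mM final. Value is % inhibition of farnesylation.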

“N-[4-(2-adamantan-1-ylpropoxy)-2-(2-methylphenyl)benzoyl]methionine, lithium salt [Example 563]” was tested, and the “% inhibition at 1 × 10^-7 M” value was 95%.

Same assay, conditions: Table 6; * footnote 0.1 μM (title: 0.1 mM)

`CCCCC(OCc1ccc(C(=O)N[C@@H](CCSC)C(=O)[O-])c(-c2ccccc2C)c1)C1CCNCC1.[Li+]` (some centres unmarked) [Example 1288] was tested, and the “% inhibition at 0.1 μM (*)” value was 69%.

Same assay, conditions: Table 6; ** footnote 0.01 μM (title: 0.01 mM)

For `CCSCC(CC1CCCCC1)NCc1cc(-c2ccccc2C)c(C(=O)N[C@@H](CCSC)C(=O)O)cc1OC` (some centres unmarked) [Example 1337], the “% inhibition at 0.01 μM (**)” value was 83%.

Same assay, conditions: read-out: % inhibition at 0.01 μM (**)

Going from `CSCC[C@H](NC(=O)c1ccc(CO[C@H](COC(C)C)CC2CCCCC2)cc1-c1ccccc1C)C(=O)O` [Example 1306, N-[4-[(S)-3-Cyclohexyl-1-(1-methylethoxy)prop-2-yloxymethyl]-2-(2-methylphenyl)benzoyl]methionine Lithium Salt] to `CCCCOCC(CC1CCCCC1)OCc1ccc(C(=O)N[C@@H](CCSC)C(=O)O)c(-c2ccccc2C)c1` (some centres unmarked) [Example 1308, N-[4-(3-Cyclohexyl-1-butoxyprop-2-yloxymethyl)-2-(2-methylphenyl)benzoyl]methionine Lithium Salt], the inhibition at 0.01 µM rises from 85% to 91%.

`CSCC[C@H](NC(=O)c1ccc(COC(CCC2CCCCC2)c2ccnnc2)cc1-c1ccccc1C)C(=O)O` (some centres unmarked) [Example 1349, N-[4-(1-(Pyridazin-4-yl)-3-cyclohexylpropan-1-yloxymethyl)-2-(2-methylphenyl)benzoyl]methionine lithium salt] was tested, and the inhibition at 0.01 µM was 92%.

Same assay, conditions: read-out: % inhibition at 0.01 μM (**); Table 6; ** footnote 0.01 μM (title: 0.01 mM)

Compared with `CSCC[C@H](NC(=O)c1ccc(COC(CCC2CCCCC2)c2cnnn2C)cc1-c1ccccc1C)C(=O)O` (some centres unmarked) [Example 1225, N-[4-(1-(1-Methyl-1,2,3-triaz-5-yl)-3-cyclohexylpropan-1-yloxymethyl)-2-(2-methylphenyl)benzoyl]methionine lithium salt], `COC[C@H](CC1CCCCC1)OCc1ccc(C(=O)N[C@@H](CCSC)C(=O)O)c(-c2ccccc2C)c1` [Example 1304, N-[4-(3-Cyclohexyl-1-methoxyprop-2-yloxymethyl)-2-(2-methylphenyl)benzoyl]methionine Lithium Salt] is lower in inhibition at 0.01 µM: 92% for the first, 90% for the second.

Going from `CSCC[C@H](NC(=O)c1ccc(COCc2cc(F)cc(F)c2)cc1-c1ccccc1C)C(=O)O` [Example 1226, N-[4-(3,5-trifluorobenzyloxymethyl)-2-(2-methylphenyl)benzoyl]methionine lithium salt] to `CCCC[C@H](CC1CCCCC1)OCc1ccc(C(=O)N[C@@H](CCSC)C(=O)O)c(-c2ccccc2C)c1` [Example 1303, N-[4-(1-Cyclohexyl-2-hexyloxymethyl)-2-(2-methylphenyl)benzoyl]methionine Lithium Salt], the inhibition at 0.01 µM rises from 69% to 91%.

Going from `CCCOC[C@H](CC1CCCCC1)OCc1ccc(C(=O)N[C@@H](CCSC)C(=O)O)c(-c2ccccc2C)c1` [Example 1305, N-[4-(3-Cyclohexyl-1-propoxyprop-2-yloxymethyl)-2-(2-methylphenyl)benzoyl]methionine Lithium Salt] to `CSCC[C@H](NC(=O)c1ccc(CO[C@H](COCC(O)CO)CC2CCCCC2)cc1-c1ccccc1C)C(=O)O` (some centres unmarked) [Example 1347, N-[4-(3-Cyclohexyl-1-(2,3-dihydroxy-1-propoxy)-prop-2-yloxymethyl)-2-(2-methylphenyl)benzoyl]methionine, Lithium Salt], the inhibition at 0.01 µM falls from 91% to 81%.

Compared with `CSCC[C@H](NC(=O)c1ccc(CO[C@H](COC(C)(C)C)CC2CCCCC2)cc1-c1ccccc1C)C(=O)O` [Example 1307], `CSCC[C@H](NC(=O)c1ccc(CO[C@H](COC2CCC2)CC2CCCCC2)cc1-c1ccccc1C)C(=O)O` [Example 1345] is higher in inhibition at 0.01 µM: 85% for the first, 94% for the second.

Compared with `CC[S+]([O-])C[C@H](CC1CCCCC1)OCc1ccc(C(=O)N[C@@H](CCSC)C(=O)O)c(-c2ccccc2C)c1` (some centres unmarked) [Example 1310, Lithium Salt], `CCS(=O)(=O)C[C@H](CC1CCCCC1)OCc1ccc(C(=O)N[C@@H](CCSC)C(=O)O)c(-c2ccccc2C)c1` [Example 1311, N-[4-(3-Cyclohexyl-1-ethylsulfonylprop-2-yloxymethyl)-2-(2-methylphenyl)benzoyl]methionine Lithium Salt] is higher in inhibition at 0.01 µM: 90% for the first, 95% for the second.

First: CCCCSC[C@H](CC1CCCCC1)OCc1ccc(C(=O)N[C@@H](CCSC)C(=O)O)c(-c2ccccc2C)c1 [Example 1312, N-[4-(1-Butylthio-3-cyclohexylprop-2-yloxymethyl)-2-(2-methylphenyl)benzoyl]methionine Lithium Salt]
Second: CSCC[C@H](NC(=O)c1ccc(CO[C@@H](CC2CCCCC2)C(=O)N2CCS(=O)(=O)CC2)cc1-c1ccccc1C)C(=O)O [Example 1348, N-[4-(3-cyclohexyl-N-thiomorpholin-S,S-dioxide-4-ylpropion-2-yloxymethyl)-2-(2-methylphenyl)benzoyl]methionine, Lithium Salt]
The inhibition at 0.01 µM of the first is higher: 91% for the first, 78% for the second.

Same assay, conditions: read-out: % inhibition at 0.1 μM (*); Table 6; * footnote 0.1 μM (title: 0.1 mM)

Compared with `CSCC[C@H](NC(=O)c1ccc(COC(CCC2CCCCC2)c2ncnn2C)cc1-c1ccccc1C)C(=O)O` (some centres unmarked) [Example 1224, N-[4-(1-(1-Methyl-1,2,4-triaz-5-yl)-3-cyclohexylpropan-1-yloxymethyl)-2-(2-methylphenyl)benzoyl]methionine lithium salt], `CSCC[C@H](NC(=O)c1ccc(COC[C@@H](O)CC2CCCCC2)cc1-c1ccccc1C)C(=O)O` [Example 1314, N-[4-(3-Cyclohexyl-2-hydroxyprop-1-yloxymethyl)-2-(2-methylphenyl)benzoyl]methionine Lithium Salt] is higher in inhibition at 0.1 µM: 88% for the first, 96% for the second.

First: CSCC[C@H](NC(=O)c1ccc(COC(c2ccccc2)C2CCN(S(=O)(=O)c3ccccc3)CC2)cc1-c1ccccc1C)C(=O)O (some centres unmarked) [Example 1252, N-[4-(1-(4-(N-phenylsulfonyl)piperidinyl)benzyloxymethyl-2-(2-methylphenyl)benzoyl]methioninelithium salt]
Second: CSCC[C@H](NC(=O)c1ccc(COC(Cc2ccccc2)C2CCN(S(=O)(=O)c3ccccc3)CC2)cc1-c1ccccc1C)C(=O)O (some centres unmarked) [Example 1253, N-[4-(2-phenyl-1-(4-(N-phenylsulfonyl)piperidinyl)ethyloxymethyl-2-(2-methylphenyl)benzoyl]methioninelithium salt]
The inhibition at 0.1 µM of the first is higher: 84% for the first, 76% for the second.

Going from `CSCC[C@H](NC(=O)c1ccc(COCCc2cccc(F)c2)cc1-c1ccccc1C)C(=O)O` [Example 1274, N-[4-(2-(3-fluorophenyl)ethyloxymethyl-2-(2-methylphenyl)benzoyl]methioninelithium salt] to `CSCC[C@H](NC(=O)c1ccc(COC(c2ccccc2)C2CCOCC2)cc1-c1ccccc1C)C(=O)O` (some centres unmarked) [Example 1283, N-[4-(1-(4-tetrahydropyranyl)benzyloxymethyl-2-(2-methylphenyl)benzoyl]methioninelithium salt], the inhibition at 0.1 µM falls from 89% to 74%.

Compared with `CCCCC(OCc1ccc(C(=O)N[C@@H](CCSC)C(=O)O)c(-c2ccccc2C)c1)C1CCOCC1` (some centres unmarked) [Example 1282, N-[4-(1-(4-tetrahydropyranyl)pentyloxymethyl-2-(2-methylphenyl)benzoyl]methioninelithium salt], `CCCC[C@@H](COCc1ccc(C(=O)N[C@@H](CCSC)C(=O)O)c(-c2ccccc2C)c1)CC1CCCCC1` [Example 1315, N-[4-(2-Cyclohexylmethylhex-1-yloxymethyl)-2-(2-methylphenyl)benzoyl]methionine Lithium Salt] is higher in inhibition at 0.1 µM: 69% for the first, 86% for the second.

First: CSCC[C@H](NC(=O)c1ccc(CO[C@H](COCCC(C)(C)C)CC2CCCCC2)cc1-c1ccccc1C)C(=O)O [Example 1309, N-[4-(3-Cyclohexyl-1-(3,3-dimethylbut-1-yloxy)prop-2-yloxymethyl)-2-(2-methylphenyl)benzoyl]methionine Lithium Salt]
Second: CSCC[C@H](NC(=O)c1ccc(CO[C@H](COCC2COC(C)(C)O2)CC2CCCCC2)cc1-c1ccccc1C)C(=O)O (some centres unmarked) [Example 1346, N-[4-(3-Cyclohexyl-1-(2,2-dimethyl-1,3-dioxolan-4-methanoxy)prop-2-yloxymethyl)-2-(2-methylphenyl)benzoyl]methionine, Lithium Salt]
The inhibition at 0.1 µM of the first is higher: 96% for the first, 94% for the second.

`COc1ccc(CO[C@H](COCc2ccc(C(=O)N[C@@H](CCSC)C(=O)O)c(-c3ccccc3C)c2)CC2CCCCC2)cc1` [Example 1316, N-[4-(3-Cyclohexyl-2-(4-methoxybenzyloxy)prop-1-yloxymethyl)-2-(2-methylphenyl)benzoyl]methionine Lithium Salt] showed an inhibition at 0.1 µM of 78%.
